Source: patent US10588317B2, “Isoxazoline-substituted benzamides and analogues as insecticides” (priority 2015, dated 2020)
Read-outs that look alike come from different tables or passages of the source.

Legend:
Format in all cases: in vivo
Thrips tabaci = Thrips tabaci (onion thrips): feeding/contact activity; settings: 144 h
Description: Sunflower leaf discs were placed on agar in 24-well microtiter plates and sprayed with aqueous test solutions prepared from 10'000 ppm DMSO stock solutions. After drying the leaf discs were infested with a Thrips population of mixed ages. The samples were assessed for mortality 6 days after infestation.

Tetranychus urticae = Tetranychus urticae (two-spotted spider mite): feeding/contact activity; settings: 192 h
Description: Bean leaf discs on agar in 24-well microtiter plates were sprayed with aqueous test solutions prepared from 10'000 ppm DMSO stock solutions. After drying the leaf discs were infested with a mite population of mixed ages. The samples were assessed for mortality on mixed population (mobile stages) 8 days after infestation.

Plutella xylostella = Plutella xylostella (diamond back moth), artificial diet; settings: 120 h, read-out: effect in at least one of the two categories (mortality or growth inhibition); for percent effect (mortality or growth inhibition) at 200 ppm: application rate 200 ppm, L2 larvae, 5 days after infestation
In short: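 Artificial diet in 24-well plates treated with aqueous test solutions made from 10'000 ppm DMSO stocks, dried, then infested with L2 larvae (10 to 15 per well). Mortality and growth inhibition scored against untreated samples 5 days after infestation; activity cut-off at least 80% in either category at 200 ppm.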

Diabrotica balteata = Diabrotica balteata (corn root worm), sprayed maize sprouts; settings: 96 h, read-out: effect in at least one of the two categories (mortality or growth inhibition); for percent effect (mortality or growth inhibition) at 200 ppm: application rate 200 ppm, L2 larvae, 4 days after infestation
In short: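 Maize sprouts on agar sprayed with aqueous dilutions of DMSO stocks, dried, then infested with L2 larvae (6–10 per well). Mortality and growth inhibition scored against untreated controls 4 days after infestation, at 200 ppm application rate.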

Myzus persicae = Myzus persicae (green peach aphid): feeding/contact activity; settings: 144 h
Description: Sunflower leaf discs were placed onto agar in a 24-well microtiter plate and sprayed with aqueous test solutions prepared from 10'000 ppm DMSO stock solutions. After drying, the leaf discs were infested with an aphid population of mixed ages. The samples were assessed for mortality 6 days after infestation.

Euschistus heros = Euschistus heros (neotropical brown stink bug), sprayed soybean leaves; settings: 120 h, read-out: effect in at least one of the two categories (mortality or growth inhibition); for percent effect (mortality or growth inhibition) at 200 ppm: application rate 200 ppm, N2 nymphs, 5 days after infestation
In short: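 Soybean leaves on agar sprayed with aqueous dilutions of DMSO stocks, dried, then infested with N2 nymphs. Mortality and growth inhibition scored against untreated samples 5 days after infestation; application rate 200 ppm.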

Spodoptera littoralis = Spodoptera littoralis (Egyptian cotton leaf worm), sprayed cotton leaf discs; settings: foliar, 72 h, read-out: control (mortality, anti-feeding effect, growth inhibition)
In short: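 Cotton leaf discs on agar sprayed with aqueous test solutions made from 10'000 ppm DMSO stock; after drying, infested with five L1 larvae. Mortality, anti-feeding and growth inhibition scored versus untreated samples 3 days after infestation; control counted when any category exceeds untreated.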

[1] = application rate 200 ppm, Thrips population of mixed ages, 6 days after infestation, read-out: mortality
[2] = application rate 200 ppm, mixed population (mobile stages), 8 days after infestation, read-out: mortality
[3] = application rate 200 ppm, aphid population of mixed ages, 6 days after infestation, read-out: mortality
[4] = application rate 200 ppm, L1 larvae, 3 days after infestation

Cc1cc(C2=NO[C@@](c3cc(Cl)c(Cl)c(Cl)c3)(C(F)(F)F)C2)ccc1C(=O)NC1CON(S(=O)(=O)N(C)C(C)C)C1 (stereo partly drawn) [Compound A103, N-[2-[isopropyl(methyl)sulfamoyl]isoxazolidin-4-yl]-2-methyl-4-[(5S)-5-(3,4,5-trichlorophenyl)-5-(trifluoromethyl)-4H-isoxazol-3-yl]benzamide]
≥ 80%: mortality at 200 ppm (Thrips tabaci; [1]) | mortality at 200 ppm (Tetranychus urticae; [2]) | percent effect (mortality or growth inhibition) at 200 ppm (Plutella xylostella) | percent effect (mortality or growth inhibition) at 200 ppm (Diabrotica balteata) | mortality at 200 ppm (Myzus persicae; [3]) | percent effect (mortality or growth inhibition) at 200 ppm (Euschistus heros) | mortality at 200 ppm (Spodoptera littoralis; [4])

CC(=O)N(C)S(=O)(=O)N1CC(NC(=O)c2ccc(C3=NO[C@@](c4cc(Cl)c(F)c(Cl)c4)(C(F)(F)F)C3)cc2C)CO1 (stereo partly shown) [Compound A162]
≥ 80%: mortality at 200 ppm (Thrips tabaci; [1]) | mortality at 200 ppm (Tetranychus urticae; [2]) | percent effect (mortality or growth inhibition) at 200 ppm (Plutella xylostella) | percent effect (mortality or growth inhibition) at 200 ppm (Diabrotica balteata) | mortality at 200 ppm (Myzus persicae; [3]) | percent effect (mortality or growth inhibition) at 200 ppm (Euschistus heros) | mortality at 200 ppm (Spodoptera littoralis; [4])

CS(=O)(=O)N1CC(NC(=O)c2ccc(C3=NO[C@@](c4cc(Cl)c(Cl)c(Cl)c4)(C(F)(F)F)C3)cc2Cl)CO1 (stereo partly drawn) [Compound A15, 2-chloro-N-(2-methylsulfonylisoxazolidin-4-yl)-4-[(5S)-5-(3,4,5-trichlorophenyl)-5-(trifluoromethyl)-4H-isoxazol-3-yl]benzamide]
≥ 80%: mortality at 200 ppm (Thrips tabaci; [1]) | mortality at 200 ppm (Tetranychus urticae; [2]) | percent effect (mortality or growth inhibition) at 200 ppm (Plutella xylostella) | percent effect (mortality or growth inhibition) at 200 ppm (Diabrotica balteata) | mortality at 200 ppm (Myzus persicae; [3]) | percent effect (mortality or growth inhibition) at 200 ppm (Euschistus heros) | mortality at 200 ppm (Spodoptera littoralis; [4])

CCS(=O)(=O)N1CC(NC(=O)c2ccc(C3=NO[C@@](c4cc(Cl)c(F)c(Cl)c4)(C(F)(F)F)C3)cc2C)CO1 (stereo partly shown) [Compound A4]
≥ 80%: mortality at 200 ppm (Thrips tabaci; [1]) | mortality at 200 ppm (Tetranychus urticae; [2]) | percent effect (mortality or growth inhibition) at 200 ppm (Plutella xylostella) | percent effect (mortality or growth inhibition) at 200 ppm (Diabrotica balteata) | mortality at 200 ppm (Myzus persicae; [3]) | percent effect (mortality or growth inhibition) at 200 ppm (Euschistus heros) | mortality at 200 ppm (Spodoptera littoralis; [4])

Cc1cc(C2=NO[C@@](c3cc(Cl)cc(Cl)c3)(C(F)(F)F)C2)ccc1C(=O)N[C@H]1CON(S(=O)(=O)F)C1 [Compound A198, (4R)-4-[[4-[(5S)-5-(3,5-dichlorophenyl)-5-(trifluoromethyl)-4H-isoxazol-3-yl]-2-methyl-benzoyl]amino]isoxazolidine-2-sulfonyl fluoride]
≥ 80%: mortality at 200 ppm (Thrips tabaci) | mortality at 200 ppm (Tetranychus urticae) | percent control (mortality or growth inhibition) at 200 ppm (Plutella xylostella) | percent control (mortality or growth inhibition) at 200 ppm (Diabrotica balteata) | mortality at 200 ppm (Myzus persicae) | percent control (mortality or growth inhibition) at 200 ppm (Euschistus heros) | mortality at 200 ppm (Spodoptera littoralis)

Cc1cc(C2=NO[C@@](c3cc(Cl)c(Cl)c(Cl)c3)(C(F)(F)F)C2)ccc1C(=O)NC1CON(S(=O)(=O)NC(C)C)C1 (stereo partly drawn) [Compound A101, N-[2-(isopropylsulfamoyl)isoxazolidin-4-yl]-2-methyl-4-[(5S)-5-(3,4,5-trichlorophenyl)-5-(trifluoromethyl)-4H-isoxazol-3-yl]benzamide]
≥ 80%: mortality at 200 ppm (Thrips tabaci; [1]) | mortality at 200 ppm (Tetranychus urticae; [2]) | percent effect (mortality or growth inhibition) at 200 ppm (Plutella xylostella) | percent effect (mortality or growth inhibition) at 200 ppm (Diabrotica balteata) | mortality at 200 ppm (Myzus persicae; [3]) | percent effect (mortality or growth inhibition) at 200 ppm (Euschistus heros) | mortality at 200 ppm (Spodoptera littoralis; [4])

CCCN(C)S(=O)(=O)N1CC(NC(=O)c2ccc(C3=NO[C@@](c4cc(Cl)c(Cl)c(Cl)c4)(C(F)(F)F)C3)cc2C)CO1 (stereo partly drawn) [Compound A84, 2-methyl-N-[2-[methyl(propyl)sulfamoyl]isoxazolidin-4-yl]-4-[(5S)-5-(3,4,5-trichlorophenyl)-5-(trifluoromethyl)-4H-isoxazol-3-yl]benzamide]
≥ 80%: mortality at 200 ppm (Thrips tabaci; [1]) | mortality at 200 ppm (Tetranychus urticae; [2]) | percent effect (mortality or growth inhibition) at 200 ppm (Plutella xylostella) | percent effect (mortality or growth inhibition) at 200 ppm (Diabrotica balteata) | mortality at 200 ppm (Myzus persicae; [3]) | percent effect (mortality or growth inhibition) at 200 ppm (Euschistus heros) | mortality at 200 ppm (Spodoptera littoralis; [4])

Cc1cc(C2=NOC(c3cc(Cl)c(C#N)c(Cl)c3)(C(F)(F)F)C2)ccc1C(=O)NC1CON(S(C)(=O)=O)C1 (stereo not shown) [Compound A50]
≥ 80%: mortality at 200 ppm (Thrips tabaci; [1]) | mortality at 200 ppm (Tetranychus urticae; [2]) | percent effect (mortality or growth inhibition) at 200 ppm (Plutella xylostella) | percent effect (mortality or growth inhibition) at 200 ppm (Diabrotica balteata) | mortality at 200 ppm (Myzus persicae; [3]) | percent effect (mortality or growth inhibition) at 200 ppm (Euschistus heros) | mortality at 200 ppm (Spodoptera littoralis; [4])

Cc1cc(C2=NO[C@@](c3cc(Cl)cc(Cl)c3)(C(F)(F)F)C2)ccc1C(=O)N[C@@H]1CON(S(=O)(=O)CBr)C1 [Compound A173, N-[(4S)-2-(bromomethylsulfonyl)-1,2-oxazolidin-4-yl]-4-[(5S)-5-(3,5-dichlorophenyl)-5-(trifluoromethyl)-4H-1,2-oxazol-3-yl]-2-methylbenzamide]
≥ 80%: mortality at 200 ppm (Thrips tabaci; [1]) | mortality at 200 ppm (Tetranychus urticae; [2]) | percent effect (mortality or growth inhibition) at 200 ppm (Plutella xylostella) | percent effect (mortality or growth inhibition) at 200 ppm (Diabrotica balteata) | mortality at 200 ppm (Myzus persicae; [3]) | percent effect (mortality or growth inhibition) at 200 ppm (Euschistus heros) | mortality at 200 ppm (Spodoptera littoralis; [4])

Cc1cc(C2=NO[C@@](c3ccc(F)c(C(F)(F)F)c3)(C(F)(F)F)C2)ccc1C(=O)N[C@H]1CON(S(C)(=O)=O)C1 [Compound A183]
≥ 80%: mortality at 200 ppm (Thrips tabaci; [1]) | mortality at 200 ppm (Tetranychus urticae; [2]) | percent effect (mortality or growth inhibition) at 200 ppm (Plutella xylostella) | percent effect (mortality or growth inhibition) at 200 ppm (Diabrotica balteata) | mortality at 200 ppm (Myzus persicae; [3]) | percent effect (mortality or growth inhibition) at 200 ppm (Euschistus heros) | mortality at 200 ppm (Spodoptera littoralis; [4])

CCCS(=O)(=O)N1CC(NC(=O)c2ccc(C3=NO[C@@](c4cc(Cl)c(F)c(Cl)c4)(C(F)(F)F)C3)cc2C)CO1 (stereo partly shown) [Compound A3]
≥ 80%: mortality at 200 ppm (Thrips tabaci; [1]) | mortality at 200 ppm (Tetranychus urticae; [2]) | percent effect (mortality or growth inhibition) at 200 ppm (Plutella xylostella) | percent effect (mortality or growth inhibition) at 200 ppm (Diabrotica balteata) | mortality at 200 ppm (Myzus persicae; [3]) | percent effect (mortality or growth inhibition) at 200 ppm (Euschistus heros) | mortality at 200 ppm (Spodoptera littoralis; [4])

Cc1cc(C2=NO[C@@](c3cc(Cl)c(F)c(Cl)c3)(C(F)(F)F)C2)ccc1C(=O)N[C@@H]1CON(S(=O)(=O)N(C)C2(C#N)CC2)C1 [Compound A187]
≥ 80%: mortality at 200 ppm (Thrips tabaci; [1]) | mortality at 200 ppm (Tetranychus urticae; [2]) | percent effect (mortality or growth inhibition) at 200 ppm (Plutella xylostella) | percent effect (mortality or growth inhibition) at 200 ppm (Diabrotica balteata) | mortality at 200 ppm (Myzus persicae; [3]) | percent effect (mortality or growth inhibition) at 200 ppm (Euschistus heros) | mortality at 200 ppm (Spodoptera littoralis; [4])

CN(C1CC1)S(=O)(=O)N1C[C@@H](NC(=O)c2ccc(C3=NO[C@@](c4cc(Cl)cc(Cl)c4)(C(F)(F)F)C3)cc2Cl)CO1 [Compound A153]
≥ 80%: mortality at 200 ppm (Thrips tabaci; [1]) | mortality at 200 ppm (Tetranychus urticae; [2]) | percent effect (mortality or growth inhibition) at 200 ppm (Plutella xylostella) | percent effect (mortality or growth inhibition) at 200 ppm (Diabrotica balteata) | mortality at 200 ppm (Myzus persicae; [3]) | percent effect (mortality or growth inhibition) at 200 ppm (Euschistus heros) | mortality at 200 ppm (Spodoptera littoralis; [4])
